According to PubChem BioAssay (NCI):
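48-hour exposure; five concentrations; linearly interpolated endpoints. GI50 marks 50% less growth. TGI: total growth inhibition.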

Legend:
Assay in all cases: NCI tumour cell line growth inhibition, 48 h
786-0 renal = test system: 786-0 renal
A498 renal = test system: A498 renal
A549 NSCLC = test system: A549 NSCLC
ACHN renal = test system: ACHN renal
BT-549 breast = test system: BT-549 breast
CAKI-1 renal = test system: CAKI-1 renal
CCRF-CEM leukemia = test system: CCRF-CEM leukemia
COLO 205 colon = test system: COLO 205 colon
DU-145 prostate = test system: DU-145 prostate
EKVX NSCLC = test system: EKVX NSCLC
HCC-2998 colon = test system: HCC-2998 colon
HCT-116 colon = test system: HCT-116 colon
HCT-15 colon = test system: HCT-15 colon
HL-60(TB) leukemia = test system: HL-60(TB) leukemia
HOP-62 NSCLC = test system: HOP-62 NSCLC
HOP-92 NSCLC = test system: HOP-92 NSCLC
HS 578T breast = test system: HS 578T breast
HT29 colon = test system: HT29 colon
IGROV1 ovarian = test system: IGROV1 ovarian
K-562 leukemia = test system: K-562 leukemia
KM12 colon = test system: KM12 colon
LOX IMVI melanoma = test system: LOX IMVI melanoma
M14 melanoma = test system: M14 melanoma
MALME-3M melanoma = test system: MALME-3M melanoma
MCF7 breast = test system: MCF7 breast
MDA-MB-231 breast = test system: MDA-MB-231 breast
MDA-MB-435 = test system: MDA-MB-435
MOLT-4 leukemia = test system: MOLT-4 leukemia
NCI-H226 lung = test system: NCI-H226 lung
NCI-H23 lung = test system: NCI-H23 lung
NCI-H460 lung = test system: NCI-H460 lung
NCI-H522 lung = test system: NCI-H522 lung
NCI/ADR-RES ovarian = test system: NCI/ADR-RES ovarian
OVCAR-3 ovarian = test system: OVCAR-3 ovarian
OVCAR-4 ovarian = test system: OVCAR-4 ovarian
OVCAR-5 ovarian = test system: OVCAR-5 ovarian
OVCAR-8 ovarian = test system: OVCAR-8 ovarian
PC-3 prostate = test system: PC-3 prostate
RPMI-8226 leukemia = test system: RPMI-8226 leukemia
RXF 393 renal = test system: RXF 393 renal
SF-268 CNS = test system: SF-268 CNS
SF-295 CNS = test system: SF-295 CNS
SF-539 CNS = test system: SF-539 CNS
SK-MEL-2 melanoma = test system: SK-MEL-2 melanoma
SK-MEL-28 melanoma = test system: SK-MEL-28 melanoma
SK-MEL-5 melanoma = test system: SK-MEL-5 melanoma
SK-OV-3 ovarian = test system: SK-OV-3 ovarian
SN12C renal = test system: SN12C renal
SNB-19 CNS = test system: SNB-19 CNS
SNB-75 CNS = test system: SNB-75 CNS
SR leukemia = test system: SR leukemia
SW-620 colon = test system: SW-620 colon
T-47D breast = test system: T-47D breast
TK-10 renal = test system: TK-10 renal
U251 CNS = test system: U251 CNS
UACC-257 melanoma = test system: UACC-257 melanoma
UACC-62 melanoma = test system: UACC-62 melanoma
UO-31 renal = test system: UO-31 renal

SMILES: CCN(CC)c1ccc(/C=N/NC(=O)c2ccc(NS(C)(=O)=O)cc2)cc1
- GI50 (786-0 renal): 0.714 µM
- TGI (786-0 renal): 6.48 µM
- GI50 (A498 renal): 6.09 µM
- TGI (A498 renal): 41.3 µM
- GI50 (A549 NSCLC): 2.43 µM
- TGI (A549 NSCLC): > 100 µM
- GI50 (ACHN renal): 0.656 µM
- TGI (ACHN renal): 57.1 µM
- GI50 (BT-549 breast): 0.847 µM
- TGI (BT-549 breast): 11.2 µM
- GI50 (CAKI-1 renal): 0.554 µM
- TGI (CAKI-1 renal): > 47 µM
- GI50 (CCRF-CEM leukemia): 0.301 µM
- TGI (CCRF-CEM leukemia): > 100 µM
- GI50 (COLO 205 colon): 0.643 µM
- TGI (COLO 205 colon): 25.9 µM
- GI50 (DU-145 prostate): 0.933 µM
- TGI (DU-145 prostate): > 100 µM
- GI50 (EKVX NSCLC): 1.01 µM
- TGI (EKVX NSCLC): > 77 µM
- GI50 (HCC-2998 colon): 0.704 µM
- TGI (HCC-2998 colon): > 76.8 µM
- GI50 (HCT-116 colon): 0.352 µM
- TGI (HCT-116 colon): > 87.7 µM
- GI50 (HCT-15 colon): 0.431 µM
- TGI (HCT-15 colon): 49.1 µM
- GI50 (HL-60(TB) leukemia): 0.294 µM
- GI50 (HOP-62 NSCLC): 0.415 µM
- TGI (HOP-62 NSCLC): 17.8 µM
- GI50 (HOP-92 NSCLC): 0.457 µM
- TGI (HOP-92 NSCLC): 40.3 µM
- GI50 (HS 578T breast): 2.74 µM
- TGI (HS 578T breast): 58.9 µM
- GI50 (HT29 colon): 0.556 µM
- TGI (HT29 colon): 18.7 µM
- GI50 (IGROV1 ovarian): 0.716 µM
- TGI (IGROV1 ovarian): > 100 µM
- GI50 (K-562 leukemia): 0.595 µM
- TGI (K-562 leukemia): > 100 µM
- GI50 (KM12 colon): 0.907 µM
- TGI (KM12 colon): > 66.8 µM
- GI50 (LOX IMVI melanoma): 0.301 µM
- TGI (LOX IMVI melanoma): 10.9 µM
- GI50 (M14 melanoma): 0.463 µM
- TGI (M14 melanoma): 3.42 µM
- GI50 (MALME-3M melanoma): 1.17 µM
- TGI (MALME-3M melanoma): 15.3 µM
- GI50 (MCF7 breast): 0.598 µM
- TGI (MCF7 breast): > 100 µM
- GI50 (MDA-MB-231 breast): 0.546 µM
- TGI (MDA-MB-231 breast): > 72.1 µM
- GI50 (MDA-MB-435): 1.56 µM
- TGI (MDA-MB-435): > 100 µM
- GI50 (MOLT-4 leukemia): 0.433 µM
- TGI (MOLT-4 leukemia): > 41.3 µM
- GI50 (NCI-H226 lung): 1.21 µM
- TGI (NCI-H226 lung): 38 µM
- GI50 (NCI-H23 lung): 1.89 µM
- TGI (NCI-H23 lung): > 100 µM
- GI50 (NCI-H460 lung): 0.564 µM
- TGI (NCI-H460 lung): 11.8 µM
- GI50 (NCI-H522 lung): 0.418 µM
- TGI (NCI-H522 lung): 15.1 µM
- GI50 (NCI/ADR-RES ovarian): 3.86 µM
- TGI (NCI/ADR-RES ovarian): > 100 µM
- GI50 (OVCAR-3 ovarian): 0.231 µM
- TGI (OVCAR-3 ovarian): 20.1 µM
- GI50 (OVCAR-4 ovarian): 0.409 µM
- TGI (OVCAR-4 ovarian): > 100 µM
- GI50 (OVCAR-5 ovarian): 2.32 µM
- TGI (OVCAR-5 ovarian): > 100 µM
- GI50 (OVCAR-8 ovarian): 0.445 µM
- TGI (OVCAR-8 ovarian): > 100 µM
- GI50 (PC-3 prostate): 0.561 µM
- TGI (PC-3 prostate): > 100 µM
- GI50 (RPMI-8226 leukemia): 4.28 µM
- TGI (RPMI-8226 leukemia): > 60.7 µM
- GI50 (RXF 393 renal): 1.18 µM
- TGI (RXF 393 renal): 4.78 µM
- GI50 (SF-268 CNS): 0.383 µM
- TGI (SF-268 CNS): > 49 µM
- GI50 (SF-295 CNS): 0.828 µM
- TGI (SF-295 CNS): 20.7 µM
- GI50 (SF-539 CNS): 0.571 µM
- TGI (SF-539 CNS): 11.3 µM
- GI50 (SK-MEL-2 melanoma): 4.33 µM
- TGI (SK-MEL-2 melanoma): 24.6 µM
- GI50 (SK-MEL-28 melanoma): 0.498 µM
- TGI (SK-MEL-28 melanoma): > 78.2 µM
- GI50 (SK-MEL-5 melanoma): 1.67 µM
- TGI (SK-MEL-5 melanoma): > 46.5 µM
- GI50 (SK-OV-3 ovarian): 1.05 µM
- TGI (SK-OV-3 ovarian): 27.7 µM
- GI50 (SN12C renal): 0.978 µM
- TGI (SN12C renal): > 100 µM
- GI50 (SNB-19 CNS): 1.6 µM
- TGI (SNB-19 CNS): > 79.6 µM
- GI50 (SNB-75 CNS): 0.434 µM
- TGI (SNB-75 CNS): 16.9 µM
- GI50 (SR leukemia): 0.17 µM
- TGI (SR leukemia): > 100 µM
- GI50 (SW-620 colon): 0.693 µM
- TGI (SW-620 colon): > 100 µM
- GI50 (T-47D breast): 1.22 µM
- TGI (T-47D breast): > 72.1 µM
- GI50 (TK-10 renal): 1.74 µM
- TGI (TK-10 renal): > 92.6 µM
- GI50 (U251 CNS): 0.236 µM
- TGI (U251 CNS): > 44.5 µM
- GI50 (UACC-257 melanoma): 1.1 µM
- TGI (UACC-257 melanoma): 21.2 µM
- GI50 (UACC-62 melanoma): 0.526 µM
- TGI (UACC-62 melanoma): 10.2 µM
- GI50 (UO-31 renal): 0.58 µM
- TGI (UO-31 renal): 24.4 µM
